Test results as given in patent US12472228B2, “Use of exosome-based delivery of NF-κB inhibitors” (Ilias Biologics Inc., priority 2020, dated 2025).

What was measured:
THP-1 cells = test: LPS-stimulated THP-1 cells, cytokine secretion (ELISA); assay type: cell-based, human; details: JSH-23 50 μM, Exo-srIκB 5×10^6 particles
Procedure: (A) HEK293-NF-κB-luciferase cells (2×10^4 cells) were cultured either with Exo-Naïve or with Exo-srIκB 2×10^5 particles. After 24 h, the cells were treated with 0.5 ng/ml TNF-α for an additional 18 h. Luciferase activities were measured and normalized. (B) Exo-srIκB dose-dependently repressed NF-κB activation in NF-κB-luciferase cells. (C) THP-1 cells (5×10^5 cells) were stimulated with […] LPS and then treated with Exo-srIκBs 5×10^6 particles. The supernatants were collected and assayed for the production of TNF-α and monocyte chemoattractant protein (MCP)-1. […] Cells were harvested into a single-cell suspension and assessed through flow cytometry using specific phycoerythrin (PE)-conjugated antibodies against human intercellular cell adhesion molecule (ICAM)-1.
The TNF-α, IL-8 and MCP-1 levels in supernatants collected from THP-1 and HUVEC cultures were measured using commercial ELISA kits (R&D Systems, Minneapolis, MN, USA), and NF-κB activity in HUVECs was measured using the Trans AM NF-κB p65 kit (Active Motif, Carlsbad, CA, USA). TNF-α, CCL-4/macrophage inflammatory protein (MIP)-1β, IL-6, and IL-1β levels in mouse plasma collected through cardiac puncture at the indicated time points after the high-grade CLP procedure were measured using the Mouse Magnetic Luminex eScreening Assay kit (R&D Systems). […]

[1] = test system: experimental ischemic AKI model; details: by lowering inflammatory cytokine expression and macrophages/monocyte accumulation; cited from earlier work
lung IRI model = details: decreases neutrophil infiltration and pulmonary edema; cited from earlier work

## Cc1ccc(NCCCc2ccccc2)c(N)c1 [JSH-23]
THP-1 cells
  inhibiting LPS-induced NF-κB activation and cytokine production: Exo-srIκB versus JSH-23: comparable effects

## infliximab: anti-TNF-α agent
[1]
  effect in the experimental ischemic AKI model: protective effects

B1: srIκB: non-degradable IκBα protein with mutations at serine residues 32 and 36 (protein, listed as Homo sapiens)
chain: MFQAAERPQEWAMEGPRDGLKKERLLDDRHDAGLDAMKDEEYEQMVKELQEIRLEPQEVPRGSEPWKQQLTEDGDSFLHLAIIHEEKALTMEVIRQVKGDLAFLNFQNNLQQTPLHLAVITNQPEIAEALLGAGCDPELRDFRGNTPLHLACEQGCLASVGVLTQSCTTPHLHSILKATNYNGHTCLHLASIHGYLGIVELLVSLGADVNAQEPCNGRTALHLAVDLQNPDLVSLLLKCGADVNRVTYQGYSPYQLTWGRPSTRIQQQLGQLTLENLQMLPESEDEESYDTESEFTEFTEDELPYDDCVFGGQRLTL
Lung IRI model
  effect in the lung IRI model: proven protective effects
